Test results: publication PMC11374660, “The novel family of Warbicin® compounds inhibits glucose uptake both in yeast and human cells and restrains cancer cell proliferation” (Frontiers in Oncology, 2024)
Read-outs that look alike come from different tables or passages of the source.

How the values were obtained:
[1] = test system: glucose uptake by tps1Δ yeast cells; test: Zero-trans uptake of radioactive glucose in tps1Δ yeast cells; assay type: cell-based, S. cerevisiae; conditions: for IC50: Saccharomyces cerevisiae
Method: Zero-trans uptake of radioactively labeled [U-^14C]glucose, [U-^14C]fructose or [U-^14C]galactose by S. cerevisiae cells was determined in accordance with previous studies ([45], [75]). Cells were grown on different carbon sources depending on the experiment. For measuring glucose uptake activity in the tps1Δ and tps1Δ hxtΔ strains, cells were grown on YP medium containing 325 mM glycerol (measurement of 10 s). Typically, for compound characterization and kinetic studies in wild type and tps1Δ strains, cells were (pre)grown on Complete Synthetic medium supplemented with 110 mM galactose (measurement of 10 s). In the experiments on the influence of hexokinase activity on the sugar uptake rate, the measurement duration was shortened to 5 s and cells were always grown on YP medium containing 325 mM glycerol and 430 mM ethanol. After harvesting, cells were washed twice with ice-cold 25 mM MES-buffer pH 6, and resuspended in their respective medium without sugar to a final concentration of 45 mg (wet weight)/mL. The amount of added tracer was estimated to give a response close to at least 1000 counts per min in order to adequately counter background noise. Cells were first preincubated for 10 min at 30°C with the compound to acclimate the cells to the temperature and to allow adequate interaction with the compound prior to uptake. Next, hexose sugar was mixed with the cell suspension, which was then incubated at 30°C for 5 or 10 s, depending on the experiment, after which the cells were rapidly filtered over a glass microfiber filter (Whatman GF/C) and washed three times with ice-cold dH2O. The loaded filter was transferred to a scintillation vial containing 3 mL liquid scintillation cocktail (Ultima-Flo M, Perkin Elmer) and counted using the Hidex 300 SL. Three blank measurements per strain were typically included to account for background signal, for which the cells were first quenched before adding the radioactive label.

yeast tps1Δ strain = test: Growth (rescue) of the yeast tps1Δ strain on galactose with or without glucose; assay type: cell-based, S. cerevisiae
Method: Growth curves were made by measuring OD595 in a 96-well plate using the Multiskan™ FC Microplate Photometer (Thermo Fisher Scientific). Typically, for tps1Δ rescue experiments, cells were (pre)grown in Complete Synthetic medium containing 110 mM galactose. Compounds were always added 10 min prior to glucose addition to ensure maximal interaction between the cells and compounds. Cells originating from the preculture were harvested, washed in medium without sugar, after which they were resuspended to an OD of 0.1 in 200 µL of the appropriate medium. At least three technical replicates were included per condition. OD595 was measured at 30°C every 30 min with a 10-min shaking interval.

[2] = test system: 2-deoxyglucose uptake in A549 lung adenocarcinoma cells; test: 2-deoxyglucose uptake in A549 lung adenocarcinoma cells; assay type: cell-based, human
Method: Zero-trans glucose uptake in A549 cells was approximated by measuring the uptake of [1,2-^3H]2-deoxyglucose. For this purpose, A549 cells were pregrown in RPMI medium containing 10 mM glucose in a 24-well plate to a cell density of around 100,000 cells/well. Prior to adding radioactive label, cells were gently washed twice in Krebs-Ringer-HEPES buffer (50 mM HEPES pH 7.4, 137 mM NaCl, 4.7 mM KCl, […], 1.3 mM MgSO4 and 0.1% w/v BSA) at 30°C to remove any residual sugar. RPMI medium without sugar containing the compound intended for treatment, was added to the cells for 15 min at 37°C to allow adequate interaction of the cells with the compound. The uptake measurement was initiated by adding an equal volume of medium containing radiolabeled 2DG. After 3 - 4 min incubation at 37°C, medium was aspirated and cells were gently washed three times with ice-cold Krebs-Ringer-HEPES buffer. Cells were lysed by adding 200 µL of ice-cold 0.1 M NaOH solution and incubating the plate for 10 min at 37°C. Cell lysates were transferred to scintillation vials for subsequent scintillation counting. For blank measurements, cells were incubated with 50 µM Cytochalasin B prior to the uptake measurement.

[3] = test system: A549 lung adenocarcinoma cells; test: Glucose consumption and lactate production over 8 h, A549; assay type: cell-based, human; conditions: A549, 25 µM, 1 mM glucose
Method: The influence of WBC compounds on glucose consumption over a longer time period was studied in the A549 adenocarcinoma and KMS-12-PE multiple myeloma cell lines. As such, different parameters needed to be optimized depending on whether cells were adherent or in suspension. As such, A549 cells were incubated at 125,000 cells/well in a 24-well plate in 300 µL RPMI medium for 8 h. For the KMS-12-PE cell line, 100,000 cells/well were incubated in 100 µL RPMI medium in a 96-well plate for 8 h. Medium was collected, spun down and HPLC-analyzed for measuring glucose and lactate levels. Metabolite levels were corrected for cell number, which always varied little over the span of 8 h. For every condition, at least 4 technical repeats were included.

female NMRI-nu mice = test: In vivo toxicity and tolerability in mice; conditions: for abnormalities / toxic effects in liver and other organs at autopsy: daily i.p., toxic effects at 20 mg/kg WBC-15C and at 20 and 10 mg/kg WBC-11C, not at lower doses; for loss in body weight: daily intraperitoneal injection, 5, 10 and 20 mg/kg; for AST/ALT ratio vs vehicle: sera after 20 days, 5, 10, 20 mg/kg daily i.p.; for blood glucose level vs vehicle: sera post-mortem after 20 days, 5, 10, 20 mg/kg daily i.p.
Method: Warbicin ® in vivo toxicity and tolerability was examined by subjecting female NMRI-nu mice (12 weeks old) to daily intraperitoneal injection of either WBC-A, WBC-15C, WBC-4C or WBC-11C. Compounds were dosed at either 5 mg/kg, 10 mg/kg or 20 mg/kg over a period of 20 days. Three mice were used per condition. To evaluate toxicity, change in body weight was registered daily. As a humane endpoint, mice that lost more than 20% of their original body weight were prematurely sacrificed. In addition, liver function was examined by measuring the ratio of the AST to ALT enzyme activities (AbCam ab105135, ab105134) in sera samples collected at the end of the experiment. Furthermore, the blood glucose level in mice sera was determined using the colorimetric GOD-PAP method. Due to their considerable hydrophobicity, the compounds were dissolved in a sterilized 1xPBS, 5% DMSO and 5% Tween-80 solution until a homogenous suspension was obtained that could be administered in a reproducible way.

[4] = Solubility of compound stocks; assay type: physicochemical; conditions: 100% DMSO
Method: WBC-A and the complete structural analog library ( Supplementary Table 2 ) were purchased from different vendors, i.e. Enamine (n = 185), Life Chemicals (n = 10), LabNetwork (n = 4) and Uorsy (n = 4). WBC compounds in general are very insoluble in aqueous solutions, challenging their solubilization. Throughout this work, WBC compounds were always stock aliquoted at 50 mM concentration in 100% DMSO. In many cases, gentle sonication and heating up to 37°C was necessary to completely solubilize the compound stocks. Whereas WBC-A, -15C, -4C and -11C could be dissolved at 50 mM, some structural analogs remained in smooth or rough suspension, regardless of the concentration. Even though it is recommended to aliquot compound stocks, no significant decrease in compound strength by repeated freeze and thaw cycles in DMSO was observed.

Compound	IC50 ([1]; read-out: IC50 values for 2.5 mM glucose uptake in tps1∆ cells) [µM]	Rescue of the tps1∆ strain on 2.5 mM glucose at 100 µM (yeast tps1Δ strain)	Minimal rescue concentration for growth of tps1∆ cells on 2.5 mM glucose (yeast tps1Δ strain) [µM]	type of inhibition of 2-deoxyglucose uptake (Lineweaver-Burk) [2]	inhibition of glucose consumption and lactate production [3]	abnormalities / toxic effects in liver and other organs at autopsy (female NMRI-nu mice; 20 days)	adipose tissue at autopsy (female NMRI-nu mice; nude mice, daily i.p., 5, 10 and 20 mg/kg, 20 days, visual inspection vs vehicle)	loss in body weight (female NMRI-nu mice; nude mice, 20 days)	AST/ALT ratio vs vehicle (female NMRI-nu mice)	blood glucose level vs vehicle (female NMRI-nu mice)	concentration at which compound could be dissolved [4] [µM]	IC50 ([1]; read-out: IC50 for inhibition of 2.5 mM glucose uptake) [µM]	type of inhibition of glucose uptake ([1]; tps1Δ yeast cells)	Ki ([1]; tps1Δ yeast cells, read-out: Ki (Dixon plot) for glucose uptake) [µM]	rescue of growth on galactose in the presence of 5 mM glucose (yeast tps1Δ strain; 100 μM)	restoration of growth in the presence of 7.5 mM glucose (yeast tps1Δ strain; 100 μM)	K'i for 2-deoxyglucose uptake ([2]; Dixon plot (Ki = K'i) or Cornish-Bowden plot (WBC-11C)) [µM]	Ki ([2]; read-out: Ki for 2-deoxyglucose uptake (Dixon plot)) [µM]
Cc1nc(SCC(=O)c2ccc3c(c2)NC(=O)CO3)c2c(-c3cccs3)csc2n1 [WBC-11C]	44	Yes	50	uncompetitive	inhibited glucose consumption and lactate production	toxic effects were seen in the liver and other organs	adipose tissue was also observed in between the intestines	small transient drop	No significant difference	No significant difference	≥ 50000	–	–	–	–	–	–	–
Cc1nc(Sc2nnc3n2CCCCC3)c2c(-c3cccs3)csc2n1 [WBC-A]	–	Yes	25	noncompetitive type of inhibition	did not cause inhibition	No other abnormalities	–	no significant loss in body weight	No significant difference	No significant difference	≥ 50000	20.8	mixed type of inhibition	8.35	rescued growth	not able to restore growth	52.78	52.8
